Reference: patent publication US20170198337A1, “HIGH THROUGHPUT TELOMERIC CIRCLE ASSAY” (SENS FOUNDATION, INC., priority 2014, published 2017)

Tests used:
ALT-positive cells = settings: reported in the literature; cited from earlier work
ALT-positive cell lines = assay: CC EATR assay, C-circle content of cells treated with hydroxyurea, 96-well plates; type: cell-based, human; settings: high-throughput format, FIG. 14
Protocol: FIG. 14 depicts the detection of experimentally modulated ALT levels using the CC EATR assay. Treatment of cells with hydroxyurea (HU) decreases ALT levels. […] This experiment was performed in a high-throughput format in a 96-well plates.
For the fluorescence-based detection of RCA-mediated, CC-derived products (FIGS. 3 and 4, illustrating exonuclease digestion from the 5′ or 3′ terminus, respectively), 20 μL of each sample post-RCA (a single reaction per sample) was combined with 20 μL of 0.1 mg/ml BSA, 3 mM DTT, 0.05% Tween, 10 mM Bis-Tris-Propane-HCl, 10 mM MgCl2 (final pH 7.0 at 25 degrees C.), 2.5 U of Exonuclease III or 10 U of T7 Exonuclease (NEB), and 100 nM of (CCCTAA)2 probe labeled at the 5′ end with a 6-Carboxyfluorescein (FAM) fluorophore and a ZEN internal quencher (Integrated DNA Technologies) at the first T position. […] Fluorescence signals were collected using Applied Biosystems StepOnePlus Real-Time PCR system configured to acquire data from FAM/FITC filter sets and the reaction was run at 37° C. for 1 hour with signal being collected at 0 min and then every 15 min thereafter. […]
On day 0, passage 50 U2OS cells were seeded into a 10 cm plate, a 6 well plate, a 24 well plate and a 96 well plate at quantities of 5×10^5, 3×10^5, 1×10^4 and 1×10^4 per well respectively. […]

**Q.** Which results are given for `NC(=O)NO` [hydroxyurea]?
**A.** ALT activity of ALT-positive cells upon treatment (ALT-positive cells): decreased ALT activity; C-circle content of ALT-positive cell lines after HU treatment (ALT-positive cell lines): significant decreases
